Results taken from US7115666B2, “Nitrone compounds, pharmaceutical compositions containing the same and methods for treating inflammation and neuropathic pain” (Renovis, Inc., priority 2002, dated 2006).
“Also recorded” adds a separate entry of the source.

Legend:
[1] = test system: spinal nerve ligation model (Chung model); test: Spinal nerve ligation (Chung) model, mechanical allodynia; assay type: in vivo, rats; conditions: 25 mg/kg single dosing via i.p.; von Frey filaments
Method: Compound 14 and Compound 23 were prepared for i.p. administration as follows. 250 mg/ml of each of the compounds to be tested, was dissolved in a mixture of Cremophor EL/alcohol (90:10) (volume:volume), respectively, by brief sonication on ice, followed by further 10-fold dilution in saline solution (9% Cremophor EL; 1% ETOH and 90% saline) to give a final concentration of 25 mg/ml. before injection. 1 ml/kg (body weight) of compound solution was administered via i.p. to rats, to yield a dose of 25 mg/kg. 180–200 grams of body weight, male, Sprague-Dawley rats from Harlan were used. They were housed under the standard housing conditions and trained for 1 week before measurement of the baseline. The rats were prepared in the manner described in Example V, above, by i.p. admininstration of Taxol. The spinal nerve ligation surgery was performed as described by Kim & Chung (Kim, S. O., and Chung, J. M., An experimental model for peripheral neuropathy produced by segmental spinal nerve ligation in rat. Pain. 1992; 50:355–363.). The development of neuropathic pain was measured using 50% of threshold measurement using von Frey filaments. […] Generally speaking, the mechanical allodynia in spinal nerve ligation model rats fell in the range of 1–4 grams of the paw withdrawal threshold. The results of the tests are set forth in FIG. 8 and are summarized in the last two rows of Table III.

[2] = test system: Taxol-induced neuropathic pain model in mice; test: Taxol-induced neuropathic pain model, mechanical allodynia (von Frey filament); assay type: in vivo
Description: Taxol is a chemotherapeutic reagent for treatment of cancer patients. Cancer patients under Taxol chemotherapy can develop neuropathic pain, with a symptom of severe mechanical allodynia, so that a light touch (non-noxious stimulus in a normal condition) becomes painful. […] Recent studies have shown that Taxol is involved in TNF-alpha release in microglia cells. As one of the clinically relevant models, Taxol-induced neuropathic pain was developed in mice and rats. It is believed that small-diameter high threshold nociceptive C-fibers in the peripheral sensory nervous systems are largely, if not exclusively, affected in the Taxol-induced neuropathic pain models.
In this series of experiments, five-week old, male C57B1/6 mice were purchased from Charles River and housed at the Renovis animal facility in South San Francisco. Mice were trained for one week in an enclosure made of Plexiglas with dimensions of 2 in×2.5 in×3.5 in (W, H, and L) with a meshed metal support. The baseline of response to mechanical stimulus was measured using a von Frey Filament (0.6 g=3.84 mN). Normally, the baseline response is between 0 to 40%.
Taxol was dissolved (1 mg/ml) in 50% Cremophor EL and 50% alcohol, and freshly diluted with saline to the final concentration of 0.2 mg/ml in 10% Cremophor EL, 10% alcohol. Mice were administered Taxol at 1 mg/kg of body weight, via i.p. daily, while the animals of the control group received vehicle (10% Cremophor EL and 10% alcohol in saline).
Animals receiving this daily dose of Taxol will develop neuropathic pain. The mechanical allodynia was measured at day 7, 8, or 14 after Taxol administration.
A quantity of 200 mg of compound 14 (Example 14) was dissolved in 0.4 ml of 100% DMSO to yield a concentration of 500 mg/ml, and was kept at 4° C. until use. Methylcellulose was dissolved in deionized-distilled water to yield a concentration of 1%. The freshly prepared meythlcellulose was used to make a suspension of the compound, 10 mg of compound in 2.5% DMSO (V/V) and 1% methylcellulose. The suspension was sonicated for 6 min with a 5 second interval every 30 seconds before administration to animals.
A quantity of 50 mg/kg (body weight) compound or vehicle (2.5% DMSO and 1% methylcellulose), 100 μl/20 g (body weight) was given to animals via gavage feeding procedure in a randomized, blinded fashion. The animals were then placed in the enclosure for assay. Mechanical allodynia was measured with von Frey filament (0.6 g=[…]) at various times after administration.
Referring to FIG. 5, baseline in the group of animals was measured as 25+/−4% (n=24, ±SEM) before induction of neuropathic pain with Taxol (or sham treatment), where the response was measured with a von Frey filament (0.6 g=3.84 mN) as the percent of trials a withdrawal response is observed after probing with the filament. The higher the percentage, the greater the inferred pain.
Sixteen animals were treated with Taxol daily to induce neuropathic pain. Mechanical allodynia was assayed at day 8; average withdrawal response was measured as 81±5% (n=16, ±SEM). Sixteen animals were treated with matching vehicle to create sham animals. The Taxol and sham animals were then separated randomly into two groups of 8 animals each for drug vs. vehicle testing. Withdrawal responses to a von Frey filament probe were measured at 1, 6, 24, and 72 hours post-administration of drug or vehicle control, and averaged for each animal. […] Negative values reflect a reduction in inferred pain.
For mouse neuropathic pain studies, C57B1/6 strain, five-weeks old male mice were obtained from Charles River, San Diego, Calif. A total of 120 mice were used for the studies. 4 mice per cage were housed under standard conditions with 12-hour light and 12-hour dark cycles (in Renovis, Inc, South San Francisco facility). For rat neuropathic pain studies, male Sprague-Dawley rats, with body weights ranging from 180–200 grams, were obtained from Harlan. A total of 42 rats were used for this study. […]

[3] = Taxol/mice, P.O., Single dosing, 50 Mg/Kg body weight

Row | Compound | effect on mechanical allodynia (paw withdrawal threshold) [1] | time postdosing of analgesic effect ([2]; 50 mg/kg single dose via oral gavage) | effect on mechanical allodynia (Taxol-induced pain) ([2]; 50 mg/kg single dose via oral gavage, von Frey filament 0.6 g, measured 1, 6, 24, up to 48 or 72 hours postdosing) | Effective time Hour post dosing [2, 3] | extent of block of mechanical allodynia [2, 3]
1 | COc1ccc(CCCC=[N+]([O-])C(C)(C)C)cc1 [Compound 23] | significant analgesic effects over control; also recorded: attenuate mechanical allodynia | – | – | – | –
2 | N-tert-butyl-C-(4-phenylpropyl)nitrone [Compound 14] | significant analgesic effects over control; also recorded: attenuate mechanical allodynia | up to 24 hour | inhibits mechanical allodynia; also recorded: significant reduction of mechanical allodynia; also recorded: activity preventing Taxol-induced pain | ~24 h | block
